The supplement of paper PMC12463676, “Small-molecule dissolution of stress granules by redox modulation benefits ALS models” (Nature Chemical Biology, 2025)

Columns and labels:
potassium arsenate = compound: O=[As]([O-])(O)O.[K+] [potassium arsenate]; assay: thermal stability z-score vs DMSO; higher = more thermally stabilized by treatment; settings: HeLa; arsenate concentration 1 mM
Procedure: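 Cellular thermal proteome profiling in HeLa cells treated with 1 mM arsenate for 1 h (DMSO pretreatment), heated to ten temperatures (37-66.3 °C). Soluble protein was quantified by TMT mass spectrometry relative to DMSO controls; the thermal stability score was transformed to a z-score; mean of n = 3 experiments.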

lipoamide = compound: NC(=O)CCCCC1CCSS1 [lipoamide]; assay: as above; settings: HeLa, lipoamide concentration 100 µM
Procedure: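 Cellular thermal proteome profiling in HeLa cells. Cells were treated with 100 µM lipoamide for 1 h, with or without 1 mM arsenate for a further 1 h, then heated to ten temperatures (37-66.3 °C), and soluble protein was quantified by TMT mass spectrometry relative to 0.1% DMSO controls. The thermal stability score (sum of log2 fold changes minus the abundance score) was transformed to a z-score; mean of n = 3 experiments.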

[1] = arsenate co-treatment: 1 mM arsenate 1 h
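Further: each temperature applied for 3 min, abundance score taken as mean log2 fold change at the two lowest temperatures, z-score obtained by mean subtraction and division by SD.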

UniProt P62140, sequence (P62140 whole entry): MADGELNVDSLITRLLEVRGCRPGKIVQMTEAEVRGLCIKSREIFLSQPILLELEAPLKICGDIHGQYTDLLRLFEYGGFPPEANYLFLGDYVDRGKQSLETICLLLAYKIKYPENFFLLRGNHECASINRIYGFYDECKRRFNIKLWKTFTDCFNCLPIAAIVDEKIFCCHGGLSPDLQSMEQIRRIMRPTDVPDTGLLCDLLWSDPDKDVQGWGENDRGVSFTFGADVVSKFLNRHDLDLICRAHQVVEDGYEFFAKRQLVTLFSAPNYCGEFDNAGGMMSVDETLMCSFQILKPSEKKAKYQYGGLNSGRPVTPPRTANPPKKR
UniProt Q9Y2Y1, sequence (Q9Y2Y1 whole entry): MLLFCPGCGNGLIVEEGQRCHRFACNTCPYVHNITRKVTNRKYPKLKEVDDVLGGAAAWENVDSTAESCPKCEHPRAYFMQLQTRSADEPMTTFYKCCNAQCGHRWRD
UniProt O75688, sequence (O75688 whole entry): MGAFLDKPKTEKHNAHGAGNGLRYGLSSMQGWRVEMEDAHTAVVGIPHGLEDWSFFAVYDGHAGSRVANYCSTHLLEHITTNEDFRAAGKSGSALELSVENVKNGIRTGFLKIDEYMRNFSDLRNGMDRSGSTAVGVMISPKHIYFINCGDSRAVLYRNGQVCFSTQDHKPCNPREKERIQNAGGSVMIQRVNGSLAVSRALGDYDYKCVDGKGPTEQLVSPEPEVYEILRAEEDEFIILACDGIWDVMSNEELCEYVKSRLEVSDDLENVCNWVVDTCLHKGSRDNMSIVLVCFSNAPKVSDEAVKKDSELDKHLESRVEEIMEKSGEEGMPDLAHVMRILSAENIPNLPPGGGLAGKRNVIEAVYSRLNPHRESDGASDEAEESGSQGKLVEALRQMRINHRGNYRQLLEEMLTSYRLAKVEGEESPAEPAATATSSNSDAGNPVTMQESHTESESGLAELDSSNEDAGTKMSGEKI
UniProt Q969H6, sequence (Q969H6 whole entry): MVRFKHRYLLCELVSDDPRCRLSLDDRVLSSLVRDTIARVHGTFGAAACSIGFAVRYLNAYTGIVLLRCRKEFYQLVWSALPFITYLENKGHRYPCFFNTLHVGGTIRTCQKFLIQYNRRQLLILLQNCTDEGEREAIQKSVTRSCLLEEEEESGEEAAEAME
UniProt O95685, sequence (O95685 whole entry): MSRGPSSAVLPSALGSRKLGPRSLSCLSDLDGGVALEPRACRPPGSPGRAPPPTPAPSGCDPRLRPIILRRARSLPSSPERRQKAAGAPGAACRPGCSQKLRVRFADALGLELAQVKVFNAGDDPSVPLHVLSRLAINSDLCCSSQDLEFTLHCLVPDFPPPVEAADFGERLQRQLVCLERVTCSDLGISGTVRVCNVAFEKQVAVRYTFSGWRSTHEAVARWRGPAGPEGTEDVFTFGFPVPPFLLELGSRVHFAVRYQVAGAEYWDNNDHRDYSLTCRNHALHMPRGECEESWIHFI
UniProt Q13136, sequence (Q13136 whole entry): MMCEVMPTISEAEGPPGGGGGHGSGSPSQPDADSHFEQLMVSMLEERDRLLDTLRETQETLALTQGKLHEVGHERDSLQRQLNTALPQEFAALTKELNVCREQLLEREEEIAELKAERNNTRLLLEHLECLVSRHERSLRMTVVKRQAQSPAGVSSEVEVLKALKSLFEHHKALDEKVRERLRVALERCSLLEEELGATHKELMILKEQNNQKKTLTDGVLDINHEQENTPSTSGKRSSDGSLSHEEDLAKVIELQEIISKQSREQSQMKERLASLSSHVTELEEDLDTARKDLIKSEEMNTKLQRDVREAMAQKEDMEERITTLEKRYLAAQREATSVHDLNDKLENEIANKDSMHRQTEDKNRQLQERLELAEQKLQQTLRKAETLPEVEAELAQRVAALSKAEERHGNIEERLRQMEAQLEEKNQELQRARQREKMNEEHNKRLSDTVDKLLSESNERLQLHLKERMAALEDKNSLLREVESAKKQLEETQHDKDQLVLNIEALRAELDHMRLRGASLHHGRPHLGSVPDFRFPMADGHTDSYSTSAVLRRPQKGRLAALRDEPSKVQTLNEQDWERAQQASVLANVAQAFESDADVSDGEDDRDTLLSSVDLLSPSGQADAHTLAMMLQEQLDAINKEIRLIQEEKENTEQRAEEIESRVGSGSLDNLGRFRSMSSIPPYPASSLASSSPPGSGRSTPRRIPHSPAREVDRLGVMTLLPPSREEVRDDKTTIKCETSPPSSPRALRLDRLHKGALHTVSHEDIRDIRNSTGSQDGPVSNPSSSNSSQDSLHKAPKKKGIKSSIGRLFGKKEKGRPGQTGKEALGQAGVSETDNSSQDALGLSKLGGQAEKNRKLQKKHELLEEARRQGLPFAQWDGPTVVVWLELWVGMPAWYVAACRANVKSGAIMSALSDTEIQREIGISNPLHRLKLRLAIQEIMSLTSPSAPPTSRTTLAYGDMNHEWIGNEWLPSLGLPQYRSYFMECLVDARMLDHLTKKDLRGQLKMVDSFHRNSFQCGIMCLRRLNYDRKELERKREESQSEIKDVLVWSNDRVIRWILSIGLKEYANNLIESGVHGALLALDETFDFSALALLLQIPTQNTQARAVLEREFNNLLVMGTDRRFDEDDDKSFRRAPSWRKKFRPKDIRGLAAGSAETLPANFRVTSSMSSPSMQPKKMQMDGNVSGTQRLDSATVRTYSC
UniProt P16435, sequence (P16435 whole entry): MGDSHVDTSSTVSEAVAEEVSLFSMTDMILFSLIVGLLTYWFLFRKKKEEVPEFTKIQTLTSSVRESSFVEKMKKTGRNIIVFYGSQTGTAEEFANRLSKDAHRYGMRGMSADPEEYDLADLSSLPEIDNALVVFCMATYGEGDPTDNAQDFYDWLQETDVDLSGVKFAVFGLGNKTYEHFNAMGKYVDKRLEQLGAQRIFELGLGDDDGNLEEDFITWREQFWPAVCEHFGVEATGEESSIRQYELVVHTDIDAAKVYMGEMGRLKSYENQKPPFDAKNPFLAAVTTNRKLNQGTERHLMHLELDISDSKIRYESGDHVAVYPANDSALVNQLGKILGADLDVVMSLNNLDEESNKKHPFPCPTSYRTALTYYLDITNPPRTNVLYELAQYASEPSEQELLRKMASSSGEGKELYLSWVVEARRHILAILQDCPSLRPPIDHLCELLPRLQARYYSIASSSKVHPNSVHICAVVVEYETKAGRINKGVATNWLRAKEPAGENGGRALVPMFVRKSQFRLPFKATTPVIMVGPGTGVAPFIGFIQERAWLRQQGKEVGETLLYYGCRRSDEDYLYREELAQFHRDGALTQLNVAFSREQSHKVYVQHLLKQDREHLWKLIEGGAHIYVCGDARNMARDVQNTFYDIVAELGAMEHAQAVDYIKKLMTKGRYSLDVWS
UniProt P62937, sequence (P62937 whole entry, looked up): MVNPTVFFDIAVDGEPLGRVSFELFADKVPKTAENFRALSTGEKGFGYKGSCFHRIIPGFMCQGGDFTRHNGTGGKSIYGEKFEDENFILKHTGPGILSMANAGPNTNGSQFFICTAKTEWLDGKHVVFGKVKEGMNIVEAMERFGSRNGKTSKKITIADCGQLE
UniProt Q12972, sequence (Q12972 whole entry): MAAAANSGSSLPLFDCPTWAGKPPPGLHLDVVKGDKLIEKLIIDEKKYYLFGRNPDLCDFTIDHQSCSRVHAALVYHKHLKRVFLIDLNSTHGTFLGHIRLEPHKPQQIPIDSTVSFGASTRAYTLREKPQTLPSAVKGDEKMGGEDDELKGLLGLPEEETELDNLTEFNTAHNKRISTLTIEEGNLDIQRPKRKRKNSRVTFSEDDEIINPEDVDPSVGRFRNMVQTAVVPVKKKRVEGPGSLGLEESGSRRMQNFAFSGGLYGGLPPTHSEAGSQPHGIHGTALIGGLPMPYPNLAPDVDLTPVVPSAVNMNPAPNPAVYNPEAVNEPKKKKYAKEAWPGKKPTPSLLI
UniProt Q9HAB8, sequence (Q9HAB8 whole entry): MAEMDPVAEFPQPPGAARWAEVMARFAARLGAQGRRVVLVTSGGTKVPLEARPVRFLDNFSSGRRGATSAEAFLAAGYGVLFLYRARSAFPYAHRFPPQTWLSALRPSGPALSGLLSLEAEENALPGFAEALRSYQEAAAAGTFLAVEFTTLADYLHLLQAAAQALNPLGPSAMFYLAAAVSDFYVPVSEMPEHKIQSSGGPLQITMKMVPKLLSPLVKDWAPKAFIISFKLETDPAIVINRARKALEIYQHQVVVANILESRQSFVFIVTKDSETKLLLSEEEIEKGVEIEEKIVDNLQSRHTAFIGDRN
UniProt Q8WUA2, sequence (Q8WUA2 whole entry): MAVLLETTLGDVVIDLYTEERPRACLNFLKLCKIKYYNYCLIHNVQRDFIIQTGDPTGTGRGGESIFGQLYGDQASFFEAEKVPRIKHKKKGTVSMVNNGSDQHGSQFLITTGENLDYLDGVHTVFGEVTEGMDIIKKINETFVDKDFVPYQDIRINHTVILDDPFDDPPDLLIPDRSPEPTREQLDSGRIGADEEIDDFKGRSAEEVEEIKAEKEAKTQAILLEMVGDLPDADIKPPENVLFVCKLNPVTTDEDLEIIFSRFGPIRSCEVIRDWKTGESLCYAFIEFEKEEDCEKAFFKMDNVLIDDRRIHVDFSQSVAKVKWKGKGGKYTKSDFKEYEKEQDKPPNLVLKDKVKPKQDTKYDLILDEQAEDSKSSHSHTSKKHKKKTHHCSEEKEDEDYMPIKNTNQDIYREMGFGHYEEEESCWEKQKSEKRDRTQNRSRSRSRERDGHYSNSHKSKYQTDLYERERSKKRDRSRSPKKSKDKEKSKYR
UniProt Q9H2U2, sequence (Q9H2U2 whole entry): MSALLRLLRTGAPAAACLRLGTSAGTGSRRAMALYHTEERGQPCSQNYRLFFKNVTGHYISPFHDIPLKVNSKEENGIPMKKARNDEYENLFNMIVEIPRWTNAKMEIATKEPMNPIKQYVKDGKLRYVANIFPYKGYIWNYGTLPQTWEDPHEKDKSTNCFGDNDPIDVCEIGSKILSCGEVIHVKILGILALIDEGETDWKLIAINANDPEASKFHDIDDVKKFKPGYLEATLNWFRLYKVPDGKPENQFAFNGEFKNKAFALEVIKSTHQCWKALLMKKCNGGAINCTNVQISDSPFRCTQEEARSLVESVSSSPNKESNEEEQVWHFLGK

Target | thermal stability z-score (potassium arsenate) | thermal stability z-score (lipoamide; [1]) | thermal stability z-score (lipoamide; arsenate co-treatment: none)
POLR3A (UniProt O14802) | -1.69 | 0.0126 | -0.887
POLR3B (UniProt Q9NW08) | 0.309 | 0.417 | 0.0689
POLR3C (UniProt Q9BUI4) | -0.411 | 0.213 | 0.0462
POLR3D (UniProt P05423) | -1.56 | 0.483 | -0.501
POLR3E (UniProt Q9NVU0) | -0.126 | 0.0246 | 0.108
POLR3F (UniProt Q9H1D9) | -1.32 | -0.186 | -0.242
POLR3G (UniProt O15318) | -0.356 | -0.603 | -0.505
POLR3K (UniProt Q9Y2Y1) | -3.08 | 0.542 | 0.567
POLRMT (UniProt O00411) | -0.331 | 0.314 | -0.744
POM121C (UniProt A8CG34) | 1.38 | 1.24 | -0.678
POMGNT1 (UniProt Q8WZA1) | -0.0541 | -0.429 | 0.0715
POMK (UniProt Q9H5K3) | -0.285 | 0.213 | -0.243
PON2 (UniProt Q15165) | 0.478 | -4.17 | -3.42
POP1 (UniProt Q99575) | -0.401 | -0.557 | -0.523
POP4 (UniProt O95707) | -0.193 | 0.462 | 0.069
POP5 (UniProt Q969H6) | -0.617 | -0.5 | -0.587
POP7 (UniProt O75817) | 0.592 | -0.211 | 0.214
POR (UniProt P16435) | 1.03 | -0.215 | -0.028
POU2F1 (UniProt P14859) | 0.0127 | -0.0121 | -0.303
PPA1 (UniProt Q15181) | -0.342 | 1.07 | 0.424
PPA2 (UniProt Q9H2U2) | -0.244 | -1.03 | -0.335
PPAN (UniProt Q9NQ55) | -0.33 | 0.703 | -0.582
PPAT (UniProt Q06203) | -0.0713 | 0.306 | 0.28
PPCS (UniProt Q9HAB8) | -0.328 | -0.183 | 0.122
PPFIA1 (UniProt Q13136) | 0.263 | -0.28 | -0.239
PPFIBP1 (UniProt Q86W92) | 0.32 | -0.215 | 0.229
PPHLN1 (UniProt Q8NEY8) | -0.137 | 0.687 | 0.672
PPIA (UniProt P62937) | -0.295 | 0.27 | 0.693

Target | thermal stability z-score (potassium arsenate) | thermal stability z-score (lipoamide; [1]) | thermal stability z-score (lipoamide; arsenate co-treatment: none)
PPIB (UniProt P23284) | 0.559 | -3.74 | -2.72
PPID (UniProt Q08752) | 0.368 | 0.244 | -0.234
PPIE (UniProt Q9UNP9) | 0.128 | 0.246 | 0.0366
PPIF (UniProt P30405) | 0.0382 | 0.26 | 0.29
PPIH (UniProt O43447) | -0.183 | 0.218 | -0.34
PPIL1 (UniProt Q9Y3C6) | -0.489 | -0.0684 | -0.42
PPIL2 (UniProt Q13356) | -0.223 | 0.057 | -0.0266
PPIL3 (UniProt Q9H2H8) | -0.32 | -0.0679 | 0.0318
PPIL4 (UniProt Q8WUA2) | -0.913 | -0.441 | -0.236
PPIP5K1 (UniProt Q6PFW1) | 0.125 | -0.0717 | 0.0968
PPIP5K2 (UniProt O43314) | -0.606 | 0.258 | 0.00428
PPL (UniProt O60437) | 0.125 | -0.117 | -0.141
PPM1A (UniProt P35813) | -0.154 | 0.622 | 0.096
PPM1B (UniProt O75688) | 0.179 | 0.109 | 0.277
PPM1F (UniProt P49593) | -0.617 | -0.361 | -0.757
PPM1G (UniProt O15355) | -0.0978 | 0.2 | 0.916
PPM1H (UniProt Q9ULR3) | -1.01 | -1.19 | 0.00662
PPM1L (UniProt Q5SGD2) | -0.192 | -0.022 | -0.095
PPME1 (UniProt Q9Y570) | -1.09 | 0.126 | 0.00998
PPOX (UniProt P50336) | 0.154 | 0.085 | 0.352
PPP1CA (UniProt P62136) | -0.971 | 0.221 | -0.27
PPP1CB (UniProt P62140) | 0.32 | 0.928 | -0.00317
PPP1CC (UniProt P36873) | -0.446 | 0.0493 | -0.463
PPP1R2 (UniProt P41236) | 0.183 | 0.658 | 0.619
PPP1R3D (UniProt O95685) | -0.0465 | -0.601 | -0.982
PPP1R7 (UniProt Q15435) | -0.488 | 0.128 | -0.182
PPP1R8 (UniProt Q12972) | 0.412 | 0.0226 | -0.142
